According to patent publication US12551451B2, “Compositions and methods for delivering molecules” (SunVax mRNA Therapeutics Inc., priority 2023, dated 2026):

What was measured:
[1] = LNP Characteristics (size, PDI, encapsulation efficiency) of LNPs formulated with novel ionizable lipids; assay type: physicochemical; settings: LNP formulated with the ionizable lipid, DOPE, Cholesterol, DMG-PEG2000
Method: LNPs formulated using the novel ionizable lipids of the disclosure or control ionizable lipids MC3 and SM-102 were synthesized by mixing the lipid components of the LNP in ethanol at a predetermined molar ratio (ionizable lipid/DOPE/Cholesterol/DMG-PEG2000=30/15/50/1.5) to prepare an organic phase. Sa-mRNA encoding firefly luciferase (LUC) or green fluorescent protein (GFP) was diluted in 50 mM citrate buffer (pH 4.5, Fisher) to prepare an aqueous phase. The sa-mRNA was stored at −80° C. and was thawed on ice prior to use. The ethanol and aqueous phases were mixed at a 1:3 ratio by pipette with the N/P=4.2/1. The resultant LNPs were purified by ultrafiltration (100,000 cut-off, MilliporeSigma™ Amicon™ Ultra-15 Centrifugal Filter Units) at 4° C. prior to transfection into a cell, such as a T-cell.
LNPs formulated using novel ionizable lipids of the disclosure were synthesized using the procedure described in Example 2 and characterized. Table 4 below show the properties of each LNP formulated using a novel ionizable lipid of the disclosure.

spleen = test: In vivo Luciferase expression after injection of LNP-encapsulated modified mRNA, IVIS imaging; settings: LNP delivering 10 mg modified mRNA encoding Luciferase; 18 hours post injection; Balb/c mice
Method: (§1) LNP formulated using the ionizable lipids of the disclosure were used to deliver modified RNA encoding reporter genes to determine the transfection efficiency of exemplary ionizable lipids of the disclosure in immune cells and organs. Injections of mice with LNP-encapsulated modified mRNA encoding either Luciferases or eGFP were performed. In experiments with payloads encoding Luciferase mRNA, spleen expression was detected, which is an important organ with abundant pan T cells. In experiments with payloads encoding eGFP mRNA, transfection of primary T cells in vivo by FACS analysis was performed.
Balb/c mice were intraperitoneally injected with 10 mg modified mRNA encoding Luciferase, encapsulated by LNPs formulated with P1D4, P51C12, P161F6 ionizable lipids. To detect luminescence, the mice were subsequently injected with 6 mg Luciferin, a substrate of Luciferase and imaged by IVIS five minutes later.

[2] = test system: endogenous CD4, CD8, CD4/CD8 T cells and NK cells; test: In vivo transfection of T and NK cells with LNP-encapsulated modified mRNA encoding eGFP, FACS of splenocytes; set-up: species or system Balb/c mice; settings: LNP delivering 10 mg modified mRNA encoding eGFP, intravenously, 18 hours after injection
Method: as §1
Balb/c mice were intravenously injected with of 10 mg modified mRNA encoding eGFP. The modified mRNA encoding eGFP were delivered using LNPs formulated with P1D4 and P161F6 ionizable lipids in groups of 5 mice. A control group of 5 mice were injected with PBS. Balb/c mice were injected intravenously. The mice were sacrificed 18 hours after injection. Single cell splenocytes were prepared for FACS staining.

Row | Compound | Avg. Encapsulation Efficiency (EE) % [1] | Avg. PDI [1] | Avg. Size [1] | transfection of the spleen (Luciferase signal) (spleen) | transfection of endogenous CD4, CD8, CD4/CD8 T cells and NK cells [2]
1 | CCCCCCCCCCCCCC(=O)N(CC(CCCCCCCC)CCCCCCCCCC)C(C(=O)NCC(=O)OCC)C1CCN(CC)CC1 (stereo not shown) [Lipid P1D4, Ethyl (2-(1-ethylpiperidin-4-yl)-2-(N-(2-octyldodecyl)tetradecanamido)acetyl)glycinate] | 92.7% | 0.17 | 170.4 nm | effectively transfected the spleen | could transfect endogenous CD4, CD8, CD4/CD8 T cells as well as NK cell
2 | CCCCCCCCCCCCCCCCC(=O)N(C(CCCCCCC)CCCCCCC)C(CC1CCN(C)CC1)C(=O)NC1CCCCC1 (stereo not shown) [Lipid P30B7, N-(1-(cyclohexylamino)-3-(1-methylpiperidin-4-yl)-1-oxopropan-2-yl)-N-(pentadecan-8-yl)heptadecanamide] | 91.0% | 0.10 | 151.6 nm |  | 
3 | CCCCCC/C=C\CCCCCCCC(=O)N(C(CCCCCCCC)CCCCCCCC)C(C(=O)NC1CCCCCC1)C1CCN(CC)CC1 (stereo not shown) [Lipid P149C2, (Z)-N-(2-(cycloheptylamino)-1-(1-ethylpiperidin-4-yl)-2-oxoethyl)-N-(heptadecan-9-yl)hexadec-9-enamide] | 90.1% | 0.15 | 176 nm |  | 
4 | CCCCCCCCCCCCC(CCCCCCCCCC)CN(C(=O)CCC(C)C1CCC2C3CC(O)C4CC(O)CCC4(C)C3CCC12C)C(C(=O)NC12CC3CC(CC(C3)C1)C2)C1CCN(CC)CC1 (stereo not shown) [Lipid P161F6, N-(2-(((1s,3s)-adamantan-1-yl)amino)-1-(1-ethylpiperidin-4-yl)-2-oxoethyl)-N-(2-decyltetradecyl)-4-(3,6-dihydroxy-10,13-dimethylhexadecahydro-1H-cyclopenta[a]phenanthren-17-yl)pentanamide] | 87.1% | 0.18 | 215 nm | effectively transfected the spleen | could transfect endogenous CD4, CD8, CD4/CD8 T cells as well as NK cell
5 | CCCCCCCCCCCCCCCC(=O)N(C(CCCCCCCC)CCCCCCCC)C(C(=O)NC12CC3CC(CC(C3)C1)C2)C1CCN(CC)CC1 (stereo not shown) [Lipid P56A2, N-(2-(((1s,3s)-adamantan-1-yl)amino)-1-(1-ethylpiperidin-4-yl)-2-oxoethyl)-N-(heptadecan-9-yl)palmitamide] | 81.5% | 0.15 | 154.4 nm |  | 
6 | CCCCCCCCCCCCC(=O)N(CC(CCCCCCCCCC)CCCCCCCCCCCC)C(CC1CCN(C)CC1)C(=O)NC(C)(C)C (stereo not shown) [Lipid P51C12, N-(1-(tert-butylamino)-3-(1-methylpiperidin-4-yl)-1-oxopropan-2-yl)-N-(2-decyltetradecyl)tridecanamide] | 98.1% | 0.26 | 186.5 nm |  | 
7 | CCCCCCCCCCCCOC(=O)CCC(=O)N(C(CCCCCCC)CCCCCCC)C(C(=O)NC1CCCCCC1)C1CCN(CC)CC1 (stereo not shown) [Lipid P153C1, dodecyl 4-((2-(cycloheptylamino)-1-(1-ethylpiperidin-4-yl)-2-oxoethyl)(pentadecan-8-yl)amino)-4-oxobutanoate] | 90.1% | 0.12 | 148 nm |  | 
8 | CCCCCCCCCCCCCC(=O)N(C(CCCCCCC)CCCCCCC)C(C(=O)NC1CCCCCC1)C1CCN(CC)CC1 (stereo not shown) [Lipid P38D1, N-(2-(cycloheptylamino)-1-(1-ethylpiperidin-4-yl)-2-oxoethyl)-N-(pentadecan-8-yl)tetradecanamide] | 97.4% | 0.12 | 179.1 nm |  | 
9 | CCCCCCCCCCC(=O)N(CC(CCCCCCCC)CCCCCCCCCC)C(CC1CCN(C)CC1)C(=O)NC1CCCCCC1 (stereo not shown) [Lipid P40B10, N-(1-(cycloheptylamino)-3-(1-methylpiperidin-4-yl)-1-oxopropan-2-yl)-N-(2-octyldodecyl)undecanamide] | 95.8% | 0.14 | 189.9 nm |  | 
10 | CCCCCCCCCCCCCC(=O)N(C(CCCCCCC)CCCCCCC)C(CC1CCN(C)CC1)C(=O)NC1CCCCCC1 (stereo not shown) [Lipid P38D7, N-(1-(cycloheptylamino)-3-(1-methylpiperidin-4-yl)-1-oxopropan-2-yl)-N-(pentadecan-8-yl)tetradecanamide] | 94.8% | 0.21 | 236.3 nm |  | 
11 | CCCCCCCCCCCC(CCCCCCCCCCC)N(C(=O)CCCCCCCCC)C(C(=O)NC(C)(C)C)C1CCN(CC)CC1 (stereo not shown) [Lipid P53A5, N-(2-(tert-butylamino)-1-(1-ethylpiperidin-4-yl)-2-oxoethyl)-N-(tricosan-12-yl)decanamide] | 97.9% | 0.10 | 173.8 nm |  | 
12 | CCCCCCCCCCCCCC(=O)N(CC(CCCCCCCC)CCCCCCCCCC)C(C(=O)NC1CCCCC1)C1CCN(CC)CC1 (stereo not shown) [Lipid P28D10] | 95.5% | 0.10 | 188.0 nm |  | 
